“Also recorded” adds a separate entry of the source.

For one data set, the system named is neuronal nAChR. It is filed as cell-based, bovine.
The subject of a further data set is nAChR. It is filed as binding, bovine.
For data set [1], the system named is rats with chronic constriction injury. To be noted: rat, in vivo.
In data set [2] the test system is unmyelinated primary afferent sensory nerves. To be noted: rat, in vivo.
Data set [3] deals with injured nerve (sensory nerves). The note with it: rat, in vivo.
The conditions of data set [4]: in vivo; cited from earlier work.
For data set [5] the following is noted: rat, in vivo.
The conditions of data set [6]: rat, in vivo. This is another data set of the same source.

With “G C C S H P A C Y A N N Q D Y C-NH2 [An1.1]”, in the data set on neuronal nAChR, the “inhibition of the neuronal nicotinic response in cultured BCCs (comparison)” value was “not nearly as inhibitory as Vc1.1”, the “nature of the inhibition of nicotine-evoked catecholamine release” value was “competitive inhibitor” and the “protection against nicotinic receptor desensitisation” value is “protects against nicotinic receptor desensitisation”.
Regarding “GCCSD4 -HypRCNYDHPgammacarboxy-GluIC-NH2 [Vc1.1ptm]”, the “displacement of 3H-epibatidine binding” value with nAChR is “displaced the first component, but did not significantly displace the second component”. Further, the “long-term effectiveness in inhibiting neuropathic pain” value in data set [1] was “without effect; also recorded: but not Vc1.1ptm was effective”. Besides, the “inhibition of sensory nerve activity (comparison)” value in data set [2] is on record as “less effective than Vc1.1”. Moreover, the “recovery of vascular response to substance P compared to control” value in data set [3] is given as 85%.
Take `CSCC[C@@H]1NC(=O)[C@H](CC(C)C)NC(=O)[C@H](CCCNC(=N)N)NC(=O)[C@H](CO)NC(=O)[C@@H]2CSSC[C@@H]3NC(=O)[C@H](CO)NC(=O)CNC(=O)[C@H]([C@@H](C)O)NC(=O)[C@H](CSSC[C@H](N)C(=O)N[C@@H](CCCCN)C(=O)NCC(=O)N[C@@H](CCCCN)C(=O)NCC(=O)N[C@@H](C)C(=O)N[C@@H](CCCCN)C(=O)N2)NC(=O)[C@H](CSSC[C@@H](C(N)=O)NC(=O)[C@H](CCCCN)NC(=O)CNC(=O)[C@H](CO)NC(=O)[C@H](CCCNC(=N)N)NC3=O)NC(=O)[C@H](CC(=O)O)NC(=O)[C@H](Cc2ccc(O)cc2)NC1=O` [MVIIA]: in data set [2], the “inhibition of the vascular response to LFES of sensory nerves” value is given as “significant inhibition; also recorded: more effective”. Also, the “recovery of vascular response to substance P compared to control” value in data set [3] amounted to 54%. Further, in data set [4], the “potency relative to morphine” value is on record as 1000 times.
In the case of `CC[C@H](C)[C@@H]1NC(=O)[C@H](CCC(=O)O)NC(=O)[C@@H]2CCCN2C(=O)[C@H](Cc2cnc[nH]2)NC(=O)[C@H](CC(=O)O)NC(=O)[C@H](Cc2ccc(O)cc2)NC(=O)[C@H](CC(N)=O)NC(=O)[C@@H]2CSSC[C@H](NC(=O)CN)C(=O)N[C@@H](CSSC[C@@H](C(N)=O)NC1=O)C(=O)N[C@@H](CO)C(=O)N[C@@H](CC(=O)O)C(=O)N1CCC[C@H]1C(=O)N[C@@H](CCCNC(=N)N)C(=O)N2` [Vc1.1, GCCSDPRCNYDHPEIC-NH2], the “effect upon systemic blood pressure” value in data set [5] is recorded as “no effect”. Also, in data set [6], the adverse side-effects result is listed as “not observed any adverse side-effects”.

Source of the values: patent US7348400B2 (priority 2001, dated 2008).
